The text below walks through data of patent US11198692B2, “Dihydro-pyrrolo-pyridine derivatives” (Pfizer Inc., priority 2017, dated 2021).

The structures appear in SMILES notation.

The assay addresses T1, Human M4 receptors (Homo sapiens, UniProt P08173).
T1 construct: expressed in transfected cells
T1 sequence (P08173 1-479): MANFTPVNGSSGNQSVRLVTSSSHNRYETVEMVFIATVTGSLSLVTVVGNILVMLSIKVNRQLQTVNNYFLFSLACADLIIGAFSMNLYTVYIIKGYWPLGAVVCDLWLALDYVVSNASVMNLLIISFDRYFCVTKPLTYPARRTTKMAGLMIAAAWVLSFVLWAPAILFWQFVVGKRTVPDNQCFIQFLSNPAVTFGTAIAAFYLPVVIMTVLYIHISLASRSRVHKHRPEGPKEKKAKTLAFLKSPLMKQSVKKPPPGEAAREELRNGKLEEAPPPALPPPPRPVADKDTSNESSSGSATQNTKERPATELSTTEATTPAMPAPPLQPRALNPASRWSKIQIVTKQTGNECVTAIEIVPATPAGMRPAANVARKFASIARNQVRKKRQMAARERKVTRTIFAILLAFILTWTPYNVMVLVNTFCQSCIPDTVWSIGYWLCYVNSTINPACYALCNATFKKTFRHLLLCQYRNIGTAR
In words: M4 PAM cAMP assay (GloSensor). Type of assay: cell-based. The settings on record: HEK293 GloSensor cells expressing hM4, with EC20 acetylcholine and isoproterenol, geometric mean of 2-4 determinations unless footnoted (b: >=5, c: single); for EC50 Mean Asymptote Maximum (%) / Emax: Emax = maximum asymptote of fitted dose response curve; for Emax: read-out: EC50 Mean Asymptote Maximum (%). The method, then: The M4 cAMP assay was designed to determine the potency and efficacy of muscarinic positive allosteric modulators (PAMs). Human M4 receptors were stably expressed in Human embryonic kidney (HEK293) cells expressed with the Promega GloSensor™ cAMP technology.
HEK293 GloSensor cells expressing hM4 cells were cultured in growth media containing DMEM with 10% FBS, 1% Penicillin/Streptomycin, 500 μg/mL G418, 200 μg/mL Hygomycin B, and 1% Glutamax. When cells had grown to 80%-90% confluency, cells were harvested and seeded at a density of 25,000 cells/40 μL well, in a 384 white walled plates (Becton Dickinson 356661). Plates were incubated at 37 degrees C. and 5% CO2 for use after 24 hours.
Compound Preparation for Activator Screen:
Test compounds were initially prepared as 100% DMSO stock solutions, then transferred and serially diluted in 384-well compound plates (Matrix #4325). Each compound was tested at 10 concentrations in duplicate per experiment. Compound plates are spotted with 0.2 μL/well activator at 400 times the final assay concentration. Positive and negative controls for the compound alone activator response was 10 μM acetylcholine (Sigma # A2661) and DMSO, respectively. EC20 of acetylcholine was also used to define PAM activities.
Promega GloSensor™reagent (Promega # E1291) had previously been aliquotted. For each experiment, a stock solution of GloSensor™ was thawed out and equilibration medium was prepared with 88% CO2-independent media (Invitrogen #18045088), 10% fetal bovine serum and 2% GloSensor™ cAMP Reagent stock solution. Stock solution was mixed. Culture media in cell plates was discarded, then replaced with 40 μL/well pre-warmed equilibration media, then incubated in the dark at room temperature for 2 hours. During the incubation, stimulation media containing agonist and EC20 acetylcholine was prepared. CO2-independent media containing 50 […] Isoproterenol representing an EC80 of b-adrenergic receptor activity (Sigma #16504, 400 times final concentration) and EC20 acetylcholine in 1.25% DMSO was added to all columns of the compound plate, with the exception of column 12 to allow for EC0 control. […] Compounds are now 5 times the final assay concentration. The plate was mixed using a plate agitator. At the end of the 2 hour GloSensor™ incubation, add 10 μL of the CO2-independent media containing agonist, EC20 acetylcholine and isoproterenol to the cell plate. Cell plate was then incubated for 10 minutes at room temperature, and then read using an EnVision plate reader (Perkin Elmer).
Data was exported from the EnVision plate reader. The percent effect for each well was determined using the mean values for the positive and negative controls on each plate for each read, specifically 100*(compound−negative control)/(positive control−negative control). Dose response curves were fitted to the compound percent effect data using a 4-parameter logistic fit model. Data was reported as EC50 and Emax, with the Emax as the maximum asymptote of the fitted dose response curve.

Consider `CNc1nc(C)c(C)c2c1CN(C(=O)C[C@@H]1C[C@H]1c1cccnc1)C2` (single isomer, unassigned) [Example 11, 1-[6,7-Dimethyl-4-(methylamino)-1,3-dihydro-2H-pyrrolo[3,4-c]pyridin-2-yl]-2-[trans-2-(pyridin-3-yl)cyclopropyl]ethanone], for which the “EC50 Mean Asymptote Maximum (%)” value is listed as 94.8^b % and the EC50 stood at 1.6 nM.

As to `CNc1nc(C)c(C)c2c1CN(C(=O)C[C@H]1C[C@@H]1c1cncnc1)C2` (racemic) [Example 28, 1-[6,7-dimethyl-4-(methylamino)-1,3-dihydro-2H-pyrrolo[3,4-c]pyridin-2-yl]-2-[trans-2-(pyrimidin-5-yl)cyclopropyl]ethanone], the Emax was found to be 94.8% and the EC50 is below 1.7 nM.

As for `Cc1nc(N)c2c(c1C)CN(C(=O)C[C@@H]1C[C@H]1c1ccc(F)nc1)C2` (relative stereo) [Example 7, 1-(4-Amino-6,7-dimethyl-1,3-dihydro-2H-pyrrolo[3,4-c]pyridin-2-yl)-2-[trans-2-(6-fluoropyridin-3-yl)cyclopropyl]ethanone], the Emax came to 109% and the midpoint of the response, the EC50, lay at 6.45 nM.

For `CNc1nc(C)c(C)c2c1CN(C(=O)CC1CN(c3cncnc3)C1)C2` [Example 19, 1-[6,7-dimethyl-4-(methylamino)-1,3-dihydro-2H-pyrrolo[3,4-c]pyridin-2-yl]-2-[1-(pyrimidin-5-yl)azetidin-3-yl]ethanone], the Emax turned out to be 92.3% and the EC50 amounted to 1.23 nM.

Consider `CNc1nc(C)c(C)c2c1CN(C(=O)OC1CN(c3cccnc3)C1)C2` [Example 5, 1-(Pyridin-3-yl)azetidin-3-yl 6,7-dimethyl-4-(methylamino)-1,3-dihydro-2H-pyrrolo[3,4-c]pyridine-2-carboxylate], for which the Emax was found to be 96.8% and the EC50 turned out to be 1.22 nM.

In the case of `Cc1nc(N)c2c(c1C)CN(C(=O)C[C@@H]1C[C@H]1c1ccc(F)nc1)C2` (single isomer, unassigned) [Example 9, 1-(4-Amino-6,7-dimethyl-1,3-dihydro-2H-pyrrolo[3,4-c]pyridin-2-yl)-2-[trans-2-(6-fluoropyridin-3-yl)cyclopropyl]ethanone], the “EC50 Mean Asymptote Maximum (%)” value was determined as 111% and the response was half-maximal at 99.4 nM (EC50).

For the compound `Cc1c2c(c(=O)n(C)c1C)CN(C(=O)CC1CN(c3ccnc(C(F)(F)F)c3)C1)C2` [Example 25, 5,6,7-trimethyl-2-({1-[2-(trifluoromethyl)pyridin-4-yl]azetidin-3-yl}acetyl)-1,2,3,5-tetrahydro-4H-pyrrolo[3,4-c]pyridin-4-one], the Emax is 98.9% and the EC50 amounted to 8.35 nM.

For `CNc1nc(C)c(C)c2c1CN(C(=O)C[C@@H]1C[C@H]1c1cncnc1)C2` (single isomer, unassigned) [Example 29, 1-[6,7-dimethyl-4-(methylamino)-1,3-dihydro-2H-pyrrolo[3,4-c]pyridin-2-yl]-2-[trans-2-(pyrimidin-5-yl)cyclopropyl]ethanone], the Emax is 96.3% and the EC50 is 690 nM.

In the case of `Cc1nc(C(F)F)c2c(c1C)CN(C(=O)CC1CN(c3ccnc(C(F)F)c3)C1)C2` [Example 39, 1-[4-(difluoromethyl)-6,7-dimethyl-1,3-dihydro-2H-pyrrolo[3,4-c]pyridin-2-yl]-2-{1-[2-(difluoromethyl)pyridin-4-yl]azetidin-3-yl}ethanone], the Emax turned out to be 101% and the EC50 was found to be 32 nM.

Turning to `CNc1nc(C)c(C)c2c1CN(C(=O)CC1Cc3ccccc3C1)C2` [Example 24, 2-(2,3-dihydro-1H-inden-2-yl)-1-[6,7-dimethyl-4-(methylamino)-1,3-dihydro-2H-pyrrolo[3,4-c]pyridin-2-yl]ethanone], the Emax was 98.2% and a half-maximal effect (EC50) was put at 7.27 nM.

As to `Cc1nc(C)c2c(c1C)CN(C(=O)CC1CN(c3cccnc3)C1)C2` [Example 12, 2-[1-(Pyridin-3-yl)azetidin-3-yl]-1-(4,6,7-trimethyl-1,3-dihydro-2H-pyrrolo[3,4-c]pyridin-2-yl)ethanone], the Emax was determined as 89.3% and the EC50 was found to be 19.9 nM.

Regarding `CNc1nc(C)c(C)c2c1CN(C(=O)CC1CN(c3ccncn3)C1)C2` [Example 23, 1-[6,7-dimethyl-4-(methylamino)-1,3-dihydro-2H-pyrrolo[3,4-c]pyridin-2-yl]-2-[1-(pyrimidin-4-yl)azetidin-3-yl]ethanone], the Emax was determined as 95.9% and the EC50 was 1.44 nM.

For `Cc1nc(N)c2c(c1C)CN(C(=O)C[C@@H]1C[C@H]1c1ccc(F)nc1)C2` (single isomer, unassigned) [Example 8, 1-(4-Amino-6,7-dimethyl-1,3-dihydro-2H-pyrrolo[3,4-c]pyridin-2-yl)-2-[trans-2-(6-fluoropyridin-3-yl)cyclopropyl]ethanone], the Emax amounted to 99% and the EC50 was determined as 1.24 nM.

As for `CNc1nc(C)c(C)c2c1CN(C(=O)CC1CN(c3ccnc(C(F)(F)F)c3)C1)C2C` (racemic) [Example 42, 2-{1-[2-(trifluoromethyl)pyridin-4-yl]azetidin-3-yl}-1-[1,6,7-trimethyl-4-(methylamino)-1,3-dihydro-2H-pyrrolo[3,4-c]pyridin-2-yl]ethanone], the Emax came to 116% and the EC50 worked out at 6.96 nM.

In the case of `CNc1nc(C)c(C)c2c1CN(C(=O)C[C@@H]1C[C@H]1c1cncnc1)C2` (single isomer, unassigned) [Example 30, 1-[6,7-dimethyl-4-(methylamino)-1,3-dihydro-2H-pyrrolo[3,4-c]pyridin-2-yl]-2-[trans-2-(pyrimidin-5-yl)cyclopropyl]ethanone], the “EC50 Mean Asymptote Maximum (%)” value is reported as 95.1% and the EC50 turned out to be 1.58 nM.

With `CNc1nc(C)c(C)c2c1CN(C(=O)CC1CN(c3ncns3)C1)C2` [Example 2, 1-[6,7-Dimethyl-4-(methylamino)-1,3-dihydro-2H-pyrrolo[3,4-c]pyridin-2-yl]-2-[1-(1,2,4-thiadiazol-5-yl)azetidin-3-yl]ethanone], the Emax is 96.1% and the response was half-maximal at 4.33 nM (EC50).

Consider `CNc1nc(C)c(C)c2c1CN(C(=O)CC1CN(c3ccnc(OC(F)F)c3)C1)C2` [Example 3, 2-{1-[2-(Difluoromethoxy)pyridin-4-yl]azetidin-3-yl}-1-[6,7-dimethyl-4-(methylamino)-1,3-dihydro-2H-pyrrolo[3,4-c]pyridin-2-yl]ethanone], for which the Emax was 106% and a half-maximal response (EC50) required 2.91 nM.

Turning to `Cc1nc(N(C)C)c2c(c1C)CN(C(=O)CC1CN(c3cncnc3)C1)C2` [Example 20, 1-[4-(dimethylamino)-6,7-dimethyl-1,3-dihydro-2H-pyrrolo[3,4-c]pyridin-2-yl]-2-[1-(pyrimidin-5-yl)azetidin-3-yl]ethanone], the Emax was found to be 95.1% and a half-maximal effect (EC50) was put at 30.4 nM.

Regarding `CNc1nc(C)c(C)c2c1CN(C(=O)C[C@@H]1C[C@H]1c1ccc(F)nc1)C2` (single isomer, unassigned) [Example 16, 1-[6,7-dimethyl-4-(methylamino)-1,3-dihydro-2H-pyrrolo[3,4-c]pyridin-2-yl]-2-[trans-2-(6-fluoropyridin-3-yl)cyclopropyl]ethanone], the “EC50 Mean Asymptote Maximum (%)” value is given as 102^b % and the EC50 is 0.838 nM.
